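Assay format: 96-well plates, 48-hour exposure. GI50 marks 50% less growth.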 Active and inactive are the calls of the source. Rule as the data show it: active = GI50 up to about 1.1 µM and inactive = higher.
Key:
Assay in all cases: NCI tumour cell line growth inhibition, 48 h
M14 = test system: M14
OVCAR-3 = test system: OVCAR-3
SK-MEL-2 = test system: SK-MEL-2
KM12 = test system: KM12
786-0 = test system: 786-0
SK-OV-3 = test system: SK-OV-3
HCT-15 = test system: HCT-15
A549 = test system: A549
EKVX = test system: EKVX
HT-29 = test system: HT-29
LXFL 529 = test system: LXFL 529
NCI-H23 = test system: NCI-H23
NCI-H226 = test system: NCI-H226
Malme-3M = test system: Malme-3M
SF-295 = test system: SF-295
BT-549 = test system: BT-549
MDA-MB-231 = test system: MDA-MB-231
SR = test system: SR
SK-MEL-28 = test system: SK-MEL-28
MDA-MB-435 = test system: MDA-MB-435

Measured: GI50

CCc1c(OC(C)=O)c2c(NC3OC(COC(C)=O)C(OC(C)=O)C(OC(C)=O)C3OC(C)=O)nc(SC)nc2oc1=O (centres undefined)
inactive: M14 > 100 µM | OVCAR-3 > 100 µM | SK-MEL-2 > 100 µM | KM12 > 100 µM | 786-0 > 100 µM | SK-OV-3 > 100 µM | A549 > 100 µM | EKVX > 100 µM | HT-29 > 100 µM | LXFL 529 > 100 µM | NCI-H23 > 100 µM | NCI-H226 > 100 µM | Malme-3M > 100 µM | SF-295 > 100 µM
> 100 µM: HCT-15

O=C(CC(O)(C(F)(F)F)C(F)(F)F)c1cc(CC(=O)C(O)(C(F)(F)F)C(F)(F)F)cc(CC(=O)C(O)(C(F)(F)F)C(F)(F)F)c1
0.971 µM: HCT-15
active: OVCAR-3 0.454 µM | KM12 0.512 µM | NCI-H23 0.867 µM | SF-295 1.05 µM | MDA-MB-435 1 µM
inactive: M14 2.58 µM | SK-MEL-2 1.75 µM | 786-0 1.79 µM | SK-OV-3 2.14 µM | BT-549 1.71 µM | A549 1.84 µM | EKVX 2.24 µM | HT-29 1.4 µM | MDA-MB-231 1.64 µM | SR 6.78 µM | NCI-H226 3.01 µM | Malme-3M 2.01 µM | SK-MEL-28 1.64 µM

CC(C)=CC(=O)Cc1nc2ccc([N+](=O)[O-])cc2[nH]c1=O
inactive: M14 > 100 µM | OVCAR-3 > 100 µM | SK-MEL-2 > 100 µM | 786-0 > 100 µM | SK-OV-3 > 100 µM | A549 > 100 µM | EKVX > 100 µM | HT-29 > 100 µM | LXFL 529 53.7 µM | NCI-H23 > 100 µM | NCI-H226 > 100 µM | Malme-3M > 100 µM | SF-295 > 100 µM | SK-MEL-28 > 100 µM
> 100 µM: HCT-15

O=C(/C=C/c1ccc(Cl)cc1)c1ccccc(=O)c1O
0.341 µM: HCT-15
inactive: M14 2.87 µM | OVCAR-3 3.64 µM | SK-MEL-2 1.75 µM | KM12 1.53 µM | 786-0 1.18 µM | SK-OV-3 3.56 µM | BT-549 2.3 µM | A549 1.41 µM | EKVX 1.93 µM | HT-29 2.58 µM | NCI-H23 2.71 µM | MDA-MB-231 1.44 µM | NCI-H226 1.41 µM | Malme-3M 1.33 µM | SF-295 1.22 µM | SK-MEL-28 3.43 µM
active: SR 0.238 µM | MDA-MB-435 0.977 µM

O=C(O)c1cc(Cl)cc(NC(=O)C(Cl)Cl)c1Cl
inactive: M14 > 100 µM | OVCAR-3 > 100 µM | SK-MEL-2 > 100 µM | KM12 > 100 µM | 786-0 > 100 µM | SK-OV-3 > 100 µM | A549 > 100 µM | EKVX > 100 µM | HT-29 > 100 µM | LXFL 529 > 100 µM | NCI-H23 > 100 µM | NCI-H226 > 100 µM | Malme-3M > 100 µM | SF-295 > 100 µM | SK-MEL-28 > 100 µM
> 100 µM: HCT-15

Cn1c(=O)n(C2(C)CSC2)c2ccccc21
> 100 µM: HCT-15
inactive: M14 > 100 µM | KM12 > 100 µM | 786-0 > 100 µM | SK-OV-3 > 100 µM | A549 > 100 µM | EKVX > 100 µM | HT-29 > 100 µM | LXFL 529 > 100 µM | NCI-H23 > 100 µM | SR > 100 µM | NCI-H226 > 100 µM | SF-295 > 100 µM | SK-MEL-28 > 100 µM

OC1(c2cccs2)c2cccc(Cl)c2C(O)(c2cccs2)c2c(Cl)cccc21 (centres undefined)
inactive: M14 > 100 µM | OVCAR-3 > 100 µM | SK-MEL-2 37.2 µM | KM12 > 100 µM | 786-0 34.4 µM | SK-OV-3 81.5 µM | BT-549 35.6 µM | A549 > 100 µM | EKVX > 100 µM | HT-29 > 100 µM | NCI-H23 54.6 µM | MDA-MB-231 18.5 µM | SR 36.6 µM | NCI-H226 > 100 µM | Malme-3M 80.2 µM | SF-295 33.1 µM | SK-MEL-28 > 100 µM | MDA-MB-435 > 100 µM
> 100 µM: HCT-15

Oc1ccc2ccccc2c1/N=N/c1ccc(Br)cc1
inactive: M14 87.5 µM | OVCAR-3 86.9 µM | SK-MEL-2 > 100 µM | KM12 77.6 µM | 786-0 > 100 µM | SK-OV-3 17.4 µM | BT-549 > 100 µM | A549 > 100 µM | EKVX 36.2 µM | HT-29 > 100 µM | NCI-H23 > 100 µM | MDA-MB-231 > 100 µM | SR > 100 µM | NCI-H226 66.7 µM | Malme-3M 66.1 µM | SF-295 28.9 µM | SK-MEL-28 > 100 µM | MDA-MB-435 > 100 µM
> 100 µM: HCT-15

CCOC(=O)c1c(C)nc2c(c1-c1cn(-c3ccccc3)nc1-c1ccccc1)C(=O)c1ccccc1-2
inactive: M14 > 100 µM | OVCAR-3 > 100 µM | SK-MEL-2 > 100 µM | 786-0 > 100 µM | SK-OV-3 > 100 µM | BT-549 > 100 µM | A549 > 100 µM | EKVX > 100 µM | HT-29 13.8 µM | NCI-H23 > 100 µM | MDA-MB-231 > 100 µM | SR > 10 µM | NCI-H226 > 100 µM | Malme-3M > 100 µM | SF-295 > 100 µM | SK-MEL-28 > 100 µM | MDA-MB-435 > 100 µM
active: KM12 0.337 µM
> 100 µM: HCT-15

COc1ccc2c(c1)-c1nc(=O)n(CCCN(C)C)c3ccc([N+](=O)[O-])c(c13)N2
active: M14 1.08 µM | KM12 0.873 µM | 786-0 0.466 µM | A549 0.469 µM | EKVX 0.711 µM | HT-29 0.473 µM | NCI-H23 1.1 µM | MDA-MB-231 0.561 µM | SR 0.406 µM | Malme-3M 0.752 µM | SF-295 0.791 µM
inactive: OVCAR-3 2.13 µM | SK-MEL-2 12.2 µM | SK-OV-3 1.29 µM | BT-549 3.85 µM | NCI-H226 3.81 µM | SK-MEL-28 1.19 µM | MDA-MB-435 2.6 µM
0.897 µM: HCT-15

O=C(CC1(O)C(=O)Nc2ccccc21)c1ccc(F)cc1 (centres undefined)
> 100 µM: HCT-15
inactive: M14 > 100 µM | OVCAR-3 > 100 µM | SK-MEL-2 > 100 µM | 786-0 > 100 µM | SK-OV-3 > 100 µM | A549 > 100 µM | EKVX > 100 µM | HT-29 > 100 µM | LXFL 529 > 100 µM | NCI-H23 > 100 µM | NCI-H226 > 100 µM | Malme-3M > 100 µM | SF-295 > 100 µM | SK-MEL-28 > 100 µM

O=C1NC(=O)C2C1C1C=C3c4ccccc4N(c4ccccc4)C32[C@H]2C(=O)NC(=O)[C@@H]12 (some centres undefined)
inactive: M14 > 100 µM | OVCAR-3 > 100 µM | SK-MEL-2 > 100 µM | KM12 > 100 µM | 786-0 > 100 µM | SK-OV-3 > 100 µM | A549 > 100 µM | EKVX > 100 µM | HT-29 > 100 µM | LXFL 529 > 100 µM | NCI-H226 > 100 µM | Malme-3M > 100 µM | SF-295 > 100 µM | SK-MEL-28 > 100 µM
> 100 µM: HCT-15
